Results reported in patent publication EP4458804A1, “METHOD FOR PRODUCING AN OBJECT, PHENALEN-1-ONE COMPOUND AND USE THEREOF” (TriOptoTec GmbH, priority 2023, dated 2024).

Experiments:
[1] = Leaching test A: screening immersion 24 h, UV-VIS of supernatant (Beispiel 10 A); format: physicochemical; design: Abs. nach Auswaschen: unit not given here; details: for Berechneter Verlust in %: Rezeptur 1 nach Beispiel 1; for Abs. nach Auswaschen: Rezeptur 1 nach Beispiel 1, supernatant
Procedure: Um das Auswaschen der verschiedenen Farbstoffe in den Kunststofffolien zu beurteilen, wurde ein Immersionstest in deionisiertem Wasser mit einem pH-Wert von (6 ± 1) (oder gegebenenfalls anderen Lösungsmitteln) und einer Wassertemperatur von (22 ± 3) °C für 24 Stunden durchgeführt.
Dazu wurde ein Folienstück definierter Größe (3 cm x 3 cm) imprägniert (nach Rezeptur 1, Beispiel 1) und anschließend für 24 Stunden in eine definierte Menge deionisiertem Wasser (12,0 mL) gegeben und durch eine Schüttelplatte in Bewegung gehalten. Nach der angegeben Immersionszeit wurde die Folie entnommen und der Überschuss im UV-VIS Spektrometer vermessen, um die ausgewaschene Menge an Farbstoff zu bestimmen. Die Menge wird durch die definierte Größe der Folie und definierte Flüssigkeitsmenge auf einen Quadratzentimeter zurückgerechnet.
Dieser Immersionstest diente dazu, das Auswaschverhalten verschiedener Farbstoffe aus verschiedenen Kunststofffolien zu beurteilen. Weiter sollte er dabei helfen, verschiedene Farbstoffklassen oder verschiedene Farbstoffderivate einer Farbstoffklasse bezüglich dieser Charakteristik miteinander zu vergleichen.
Die zugeschnittenen Folien werden in einem geeigneten Behälter vollständig mit dem Prüfmedium (typischerweise deionisiertes Wasser) bedeckt. Anschließend wird der Behälter zugedeckt und auf die Schüttelplatte aufgebracht. Bei geringer Geschwindigkeit der Platte wird für 24 Stunden gewartet. Nach der Immersion wurden 3 mL des Überstandes durch Absorptionsspektroskopie vermessen.
Die Auswertung erfolgte über das Verhältnis der max. Absorptionswerte einer reinen Farbstofflösung definierter Konzentration und des vermessenen Überstandes. Die Ergebnisse sind in Tabelle 50 dargestellt. Tabelle 50: Auswaschverhalten verschiedener Photokatalysatoren nach Immersionstest A

[2] = system: Acinetobacter pitii; experiment: Antibacterial activity of impregnated films, modified ISO 22196 with illumination (Beispiel 12); format: cell-based; details: TPU Folie, Rezeptur 1, 1 mM F-24b; Licht 20mW/cm2 für 10min; Gram-negativ
Source text: (§1) Die Bestimmung der antimikrobiellen Aktivität erfolgte nach einer modifizierten Version der ISO 22196:2011-08 ("Messung von antibakterieller Aktivität auf Kunststoff- und anderen porenfreien Oberflächen", Ausgabedatum: 2011-08).
(§2) Bei der Testdurchführung wurde ein dünner Flüssigkeitsfilm, in dem die Bakterien enthalten sind (1,25 x 10^4 /cm^2), direkt auf die Probenkörper (3 x 3 cm) aufgebracht. Direkt nach Beimpfung wurden von der Nullprobe die Bakterien von den Probenkörperoberflächen mittels Ultraschall und Vortexen abgelöst und die Keimzahl (KBE (engl. CFU), Kolonie-bildende Einheit) bestimmt (t0-Wert).
(§3) Nach 4h wurden überlebende Bakterien von den Probenkörperoberflächen mittels Ultraschall und Vortexen abgelöst und die Keimzahl bestimmt (t4-Wert).
(§4) Im Unterschied zu der in der ISO 22196:2011-08 beschreibenen Methode wurde das Inokulum nicht mit einer Folie abgedeckt und die Inkubationszeit wurde von 24 auf 4 Stunden reduziert. Weiterhin wurden die Probenkörper der Proben 3 und 4 mit Licht der Intensität 20mW/cm2 für 10min belichtet, um eine biozide Wirkung nach Bestrahlung mit elektromagnetischer Strahlung zu bestimmen.
(§5) Verwendet wurden TPU Folienstücke, die nach dem in Beispiel 4 beschriebenen Verfahren mit Rezeptur 1 behandelt wurden. Rezeptur 1 wurde hergestellt nach Beispiel 2. […] Der Test wurde in Anlehnung an ISO 22196 nach oben beschriebener Methode durchgeführt.

[3] = system: E.coli 10536; experiment: as above; format: cell-based; details: TPU Folie, Rezeptur 1, 1 mM F-24b; Licht 20mW/cm2 für 10min; Gram-negativ
Source text: as §1, §2, §3, §4, §5

[4] = system: S.enterica; experiment: as above; format: cell-based; details: TPU Folie, Rezeptur 1, 1 mM F-24b; Licht 20mW/cm2 für 10min; Gram-negativ
Source text: as §1, §2, §3, §4, §5

[5] = system: S. aureus; experiment: Bactericidal effect after leaching/washing stress B and C (Beispiel 18), modified ISO 22196; format: cell-based; details: TPU film, Rezeptur 1, 1 mM
Source text: as §1, §2, §3, §4
Um die Haltbarkeit des Photokatalysators innerhalb der Folie bzw. dessen Auswaschen gegen gängige Reinigungsmittel zu untersuchen, wurden damit Immersionstest in Wasser und 70% Isopropanol durchgeführt.
Die Folien wurden anschließend mit dem unter B) und C) beschrieben Belastungsverfahren mit den in den Tabellen gezeigten Medien behandelt und in ihrer Wirksamkeit vor/nach Belastung verglichen.

[6] = system: S. aureus; experiment: Bactericidal effect after tempering (Beispiel 19), modified ISO 22196; format: cell-based; details: TPU film, Rezeptur 1, 1 mM
Source text: as §1, §2, §3, §4
Weiterhin wurde die Belastbarkeit des Photokatalysators in der Folie mit zusätzlichen Tests wie Tempern bei 80°C und Dampfsterilisation bei 121°C untersucht. […]

[7] = system: S. aureus; experiment: Bactericidal effect after steam sterilisation (Beispiel 20), modified ISO 22196; format: cell-based; details: TPU Folie, Rezeptur 1, 1 mM F-24b; after Dampfsterilisation 121°C, 2 h
Source text: as §1, §2, §3, §4
Weiterhin wurde die Belastbarkeit des Photokatalysators in der Folie mit zusätzlichen Tests wie Tempern bei 80°C und Dampfsterilisation bei 121°C untersucht.

[8] = system: S.aureus ATCC 6538; experiment: Antibacterial activity of impregnated films, modified ISO 22196 with illumination (Beispiele 11-16, 25); format: cell-based; details: Beispiel 14; TPU film; Rezeptur 1 (nach Beispiel 1); 1 mM photocatalyst in impregnation solution; light 20mW/cm2 10min
[9] = system: verschiedene Virusstämme; experiment: Antiviral activity of impregnated films following ISO 21702 with illumination (Beispiel 17); details: TPU film, Rezeptur 1, 1 mM, light 20mW/cm^2 for 83 min
[10] = medium 5% Neutralseife, plastic PVC
[11] = medium 5% Neutralseife, plastic TPU

For `CC(C)(O)c1cc[n+](CC2=Cc3cccc4cccc(c34)C2=O)cc1` [F-24b], which “Berechneter Verlust in %” value [1, 10] is on record?
Its value is 3,8%.

And the “Abs. nach Auswaschen” value [1, 10]?
Its value is 0,024.

And the “Berechneter Verlust in %” value [1, 11]?
The value was 10,7%.

What about the “Abs. nach Auswaschen” value [1, 11] of the same molecule?
The value was 0,061.

What about the “Berechneter Verlust in %” value ([1]; medium 70% IPA, plastic PVC) of the same molecule?
Its value is 25,4%.

And the “Abs. nach Auswaschen” value ([1]; medium 70% IPA, plastic PVC)?
The value was 0,160.

And the “Berechneter Verlust in %” value ([1]; medium 70% IPA, plastic TPU)?
Its value is 34,0%.

What about the “Abs. nach Auswaschen” value ([1]; medium 70% IPA, plastic TPU) of the same molecule?
The value was 0,194.

And the “Berechneter Verlust in %” value ([1]; medium Wasser, plastic EVA)?
The value was 2,6%.

What about the “Abs. nach Auswaschen” value ([1]; medium Wasser, plastic EVA) of the same molecule?
Its value is 0,015.

What about the “Berechneter Verlust in %” value ([1]; medium Wasser, plastic SEPS) of the same molecule?
The value was 4,7%.

What about the “Abs. nach Auswaschen” value ([1]; medium Wasser, plastic SEPS) of the same molecule?
The value was 0,027.

And the “Berechneter Verlust in %” value ([1]; medium Wasser, plastic TPU)?
The value was 1,4%.

And the “Abs. nach Auswaschen” value ([1]; medium Wasser, plastic TPU)?
Its value is 0,008.

And the “Log10 Reduktion Hauptprobe” value [2]?
The value was 3,0 ± 0,7 log10.

And the “Log10 Reduktion Hauptprobe” value [3]?
The value was 4,8 ± 0,4 log10.

And the “Log10 Reduktion Hauptprobe” value [4]?
Its value is 4,2 ± 0,6 log10.

And the “Log10 Reduktion Hauptprobe” value ([5]; After Auswaschen nach DIN EN 16105, procedure B), Wasser (dest.))?
The value was 1,9 ± 0,5 log10.

And the “Log10 Reduktion Hauptprobe” value ([5]; After Screening Test - Immersion, procedure A), 70% Isopropanol)?
Its value is 1,9 ± 0,6 log10.

What about the “Log10 Reduktion Hauptprobe” value ([5]; After Screening Test - Immersion, procedure A), Wasser (dest.)) of the same molecule?
The value was 3,3 ± 0,7 log10.

What about the “Log10 Reduktion Hauptprobe” value ([5]; After Washability nach DIN EN ISO 11998, procedure C), cleaner Neutraldesinfizierend) of the same molecule?
The value was 4,5 ± 0,6 log10.

And the “Log10 Reduktion Hauptprobe” value ([5]; After Washability nach DIN EN ISO 11998, procedure C), cleaner Sauer-oxidierend)?
Its value is 4,8 ± 0,3 log10.

And the “Log10 Reduktion Hauptprobe” value ([6]; After 1 Woche 80°C Tempern)?
Its value is 3,0 ± 1,1 log10.

What about the “Log10 Reduktion Hauptprobe” value ([6]; After 1 h 80 °C Tempern) of the same molecule?
Its value is 4,1 ± 0,1 log10.

And the “Log10 Reduktion Hauptprobe” value [7]?
Its value is 1,5 ± 0,3 log10.

And the “Log10 Reduktion Hauptprobe” value [8]?
Its value is 4,0 ± 0,3 log10.

And the “Log10 Reduktion Hauptprobe” value ([9]; Virus: Influenza A Virus (H1N1))?
Its value is 2,5 ± 0,5 log10.

What about the “Log10 Reduktion Hauptprobe” value ([9]; Virus: Modified Vaccinia Virus Ankara (MVA)) of the same molecule?
The value was 4,6 ± 0,6 log10.
